Reference: paper PMC11203978, “Discovery of Di(het)arylmethane and Dibenzoxanthene Derivatives as Potential Anticancer Agents” (International Journal of Molecular Sciences, 2024)
Counter-ions that a name gives are not always drawn. Like-named read-outs stand apart in the source and are kept apart here.

What was measured:
M-HeLa = assay: MTT cytotoxicity, M-HeLa; type: cell-based, human; conditions: MTT, 48 h incubation, read-out: IC50 (µM) Cancer Cell Lines M-HeLa
Source text: (§1) Cells and Materials. For the experiments, we used tumor cell cultures M-HeLa clone 11 (epithelioid carcinoma of the cervix, subline HeLa, clone M-HeLa), HuTu 80, human duodenal adenocarcinoma, Hep-2, human epithelial cells, SH-SY5Y, human neuroblast-like cells, A549, human lung adenocarcinoma, PA-1, human ovarian teratocarcinoma and MCF-7, a human mammary ductal adenocarcinoma from the collection of the Institute of Cytology, Russian Academy of Sciences (St. Petersburg, Russia); human liver cells (Chang liver) were from the collection and the Research Institute of Virology of the Russian Academy of Medical Sciences (Moscow, Russia).
(§2) MTT Assay. The cytotoxic effect on cells was determined using the colorimetric method of cell proliferation—the MTT test. NADP-H-dependent cellular oxidoreductase enzymes can, under certain conditions, reflect the number of viable cells. These enzymes reduce the tetrazolium dye (MTT) 3-(4,5-dimethylthiazol-2-yl)-2,5-diphenyl-tetrazolium bromide to insoluble blue-violet formazan, which crystallizes inside the cell. The amount of formed formazan is proportional to the number of cells with active metabolism. Cells were seeded on a 96-well Nunc plate at a concentration of 5 × 10^3 cells per well in a volume of 100 μL of medium and cultured in a CO2 incubator at 37 °C until a monolayer was formed. After the nutrient medium was removed, 100 µL of the test drug solutions at the given dilutions were added to the wells, which were prepared directly in the nutrient medium with the addition of 5% DMSO to improve solubility. After 48 h of incubation of the cells with the tested compounds, the nutrient medium was removed from the plates and 100 µL of the nutrient medium without serum with MTT at a concentration of 0.5 mg/mL was added and incubated for 4 h at 37 °C. Formazan crystals were added 100 µL of DMSO to each well. Optical density was recorded at 540 nm on an Invitrologic microplate reader (Novosibirsk, Russia). The experiments for all compounds were repeated three times.
(§3) Statistical analysis. The IC50 values were calculated using the MLA–Quest Graph™ IC50 Calculator (AAT Bioquest, Inc., Sunnyvale, CA, USA), 14 February 2022. Statistical analysis was performed with the Mann–Whitney test (p < 0.05). Tabular and graphical data contain averages and standard error.

HuTu 80 = assay: MTT cytotoxicity, HuTu 80; type: cell-based, human; conditions: for IC50: MTT, 48 h incubation, read-out: IC50 (µM) Cancer Cell Lines HuTu 80; for Selectivity index (SI) = IC50(normal)/IC50(tumoral): Chang liver vs HuTu 80
Source text: as §1, §2, §3

Chang Liver = assay: MTT cytotoxicity, normal Chang liver cells; type: cell-based, human; conditions: 48 h incubation, read-out: IC50 (µM) Normal Cell Line Chang Liver
Source text: as §1, §2, §3

melting point | Structure (SMILES) | IC50 (M-HeLa; Homo sapiens, M-HeLa) | IC50 (HuTu 80; Homo sapiens, HuTu80, 48 h) | IC50 (Chang Liver; Homo sapiens, Chang liver) | Selectivity index (SI) = IC50(normal)/IC50(tumoral) (HuTu 80) | IC50 (HuTu 80; Homo sapiens, HuTu80) | IC50 (M-HeLa) | IC50 (HuTu 80) | IC50 (Chang Liver)
161 to 162 °C | C[P+](CC(=O)NCCC1c2c(ccc3ccccc23)Oc2ccc3ccccc3c21)(c1ccccc1)c1ccccc1 (as salt: salt) [Compound 6b] | – | – | – | – | – | – | – | –
180 to 182 °C | O=C(CCl)NCC(c1cc2c(cc1O)OCO2)c1cc2c(cc1O)OCO2 [Compound 4a] | > 100 µM | > 100 µM | > 100 µM | – | – | – | – | –
166 to 168 °C | O=C(CCl)NCCC(c1cc2c(cc1O)OCO2)c1cc2c(cc1O)OCO2 [Compound 4b] | 84.6 ± 7.5 µM | 26.2 ± 1.7 µM | > 100 µM | – | – | – | – | –
189 to 191 °C | O=C(CCl)NCCCC(c1cc2c(cc1O)OCO2)c1cc2c(cc1O)OCO2 [Compound 4c] | > 100 µM | > 100 µM | > 100 µM | – | – | – | – | –
204 to 205 °C | O=C(C[P+](c1ccccc1)(c1ccccc1)c1ccccc1)NCCCC1c2c(ccc3ccccc23)Oc2ccc3ccccc3c21 [Compound 6c] | 26.6 ± 1.9 µM | 7.3 ± 0.6 µM | 33.4 ± 2.8 µM | 4.6 | – | – | – | –
199 to 200 °C | C[P+](CC(=O)NCCCC1c2c(ccc3ccccc23)Oc2ccc3ccccc3c21)(c1ccccc1)c1ccccc1 [Compound 6d] | 53.2 ± 4.6 µM | 18.5 ± 1.5 µM | 56.2 ± 4.7 µM | 3 | – | – | – | –
178 to 181 °C | O=C(C[P+](c1ccccc1)(c1ccccc1)c1ccccc1)NCC(c1cc2c(cc1O)OCO2)c1cc2c(cc1O)OCO2 [Compound 7a] | 73.5 ± 6.2 µM | 59.7 ± 4.6 µM | > 100 µM | – | – | – | – | –
> 250 °C | O=C(C[P+](c1ccccc1)(c1ccccc1)c1ccccc1)NCCC(c1cc2c(cc1O)OCO2)c1cc2c(cc1O)OCO2 [Compound 7b] | 65.8 ± 5.8 µM | 55.4 ± 4.5 µM | > 100 µM | – | – | – | – | –
178 to 180 °C | O=C(C[n+]1ccccc1)NCC(c1cc2c(cc1O)OCO2)c1cc2c(cc1O)OCO2 [Compound 9a] | > 100 µM | > 100 µM | > 100 µM | – | – | – | – | –
159 °C | O=C(C[n+]1ccccc1)NCCC(c1cc2c(cc1O)OCO2)c1cc2c(cc1O)OCO2 [Compound 9b] | 97.8 ± 8.2 µM | > 100 µM | 95.4 ± 8.7 µM | – | – | – | – | –
216 °C | O=C(NCC1c2c(ccc3ccccc23)Oc2ccc3ccccc3c21)c1nc2ccccc2[nH]1 [Compound 11a] | > 100 µM | > 100 µM | > 100 µM | – | – | – | – | –
224 to 225 °C | O=C(NCC1c2c(ccc3ccc(O)cc23)Oc2ccc3ccc(O)cc3c21)c1nc2ccccc2[nH]1 [Compound 11b] | 94.3 ± 7.9 µM | 11.5 ± 0.9 µM | 53.1 ± 4.3 µM | – | – | – | – | –
216 to 217 °C | O=C(NCC(c1cc2c(cc1O)OCO2)c1cc2c(cc1O)OCO2)c1nc2ccccc2[nH]1 [Compound 12a] | – | – | – | – | – | – | – | –
189 to 191 °C | Cc1cc(O)c(C(CCNC(=O)c2nc3ccccc3[nH]2)c2c(O)cc(C)oc2=O)c(=O)o1 [Compound 12c] | – | – | – | – | – | – | – | –

Further lines, the molecule ahead of its results:

Structure (SMILES) | melting point | IC50 (M-HeLa; Homo sapiens, M-HeLa) | IC50 (HuTu 80; Homo sapiens, HuTu80, 48 h) | IC50 (Chang Liver; Homo sapiens, Chang liver) | Selectivity index (SI) = IC50(normal)/IC50(tumoral) (HuTu 80) | IC50 (HuTu 80; Homo sapiens, HuTu80) | IC50 (M-HeLa) | IC50 (HuTu 80) | IC50 (Chang Liver)
O=C(NCC(c1c(O)c2ccccc2oc1=O)c1c(O)c2ccccc2oc1=O)c1nc2ccccc2[nH]1 | 263 to 265 °C | – | – | – | – | – | – | – | –
O=C(CCl)NCC(c1c(O)c2ccccc2oc1=O)c1c(O)c2ccccc2oc1=O | 187 to 188 °C | – | – | – | – | – | – | – | –
COC(CNC(=O)CCl)OC [Compound 2a] | – | > 100 µM | > 100 µM | > 100 µM | – | – | – | – | –
CCOC(CCNC(=O)CCl)OCC [Compound 2b] | – | > 100 µM | > 100 µM | > 100 µM | – | – | – | – | –
O=C(CCl)NCC1c2c(ccc3ccccc23)Oc2ccc3ccccc3c21 [Compound 3a] | 200 to 203 °C | > 100 µM | > 100 µM | > 100 µM | – | – | – | – | –
O=C(CCl)NCC1c2c(ccc3ccc(O)cc23)Oc2ccc3ccc(O)cc3c21 [Compound 3b] | > 250 °C | 96.4 ± 8.4 µM | 53.9 ± 4.3 µM | 78.2 ± 6.8 µM | – | – | – | – | –
O=C(CCl)NCCC1c2c(ccc3ccccc23)Oc2ccc3ccccc3c21 [Compound 3c] | 147 to 149 °C | 49.6 ± 3.9 µM | 29.3 ± 2.1 µM | > 100 µM | – | – | – | – | –
O=C(CCl)NCCC1c2c(ccc3ccc(O)cc23)Oc2ccc3ccc(O)cc3c21 [Compound 3d] | 137 to 139 °C | 38.4 ± 2.7 µM | 18.1 ± 1.4 µM | 54.8 ± 4.4 µM | 3 | – | – | – | –
O=C(CCl)NCCCC1c2c(ccc3ccccc23)Oc2ccc3ccccc3c21 [Compound 3e] | 164 to 165 °C | 56.6 ± 4.4 µM | > 100 µM | 73.3 ± 6.4 µM | – | – | – | – | –
O=C(CCl)NCCCC1c2c(ccc3ccc(O)cc23)Oc2ccc3ccc(O)cc3c21 [Compound 3f] | 180 °C | – | – | – | – | – | – | – | –
O=C(CCl)NCCC(c1c(O)c2ccccc2oc1=O)c1c(O)c2ccccc2oc1=O [Compound 5b] | 134 °C | 65.3 ± 5.4 µM | – | 68.1 ± 5.4 µM | – | 52.1 ± 4.2 µM | – | – | –
C[P+](CC(=O)NCCC1c2c(ccc3ccccc23)Oc2ccc3ccccc3c21)(c1ccccc1)c1ccccc1 [Compound 6b] | – | 28.4 ± 1.8 µM | 64.3 ± 5.2 µM | > 100 µM | – | – | – | – | –
O=C(C[n+]1ccccc1)NCCC1c2c(ccc3ccccc23)Oc2ccc3ccccc3c21.[Cl-] [Compound 8] | 156 °C | 85.2 ± 7.4 µM | 58.4 ± 4.6 µM | 100 ± 9.2 µM | – | – | – | – | –
COC(CNC(=O)c1nc2ccccc2[nH]1)OC [Compound 10a] | – | – | – | – | – | – | > 100 µM | > 100 µM | > 100 µM
COc1cccc2c1C(=O)c1c(O)c3c(c(O)c1C2=O)C[C@@](O)(C(=O)CO)C[C@@H]3O[C@H]1C[C@H](N)[C@H](O)[C@H](C)O1 [Doxorubicin, reference compound] | – | 3 ± 0.2 µM | 3 ± 0.2 µM | 3 ± 0.1 µM | 1 | – | – | – | –
CNC(=O)c1cc(Oc2ccc(NC(=O)Nc3ccc(Cl)c(C(F)(F)F)c3)cc2)ccn1 [Sorafenib, reference compound] | – | 35.6 ± 2.8 µM | 5 ± 0.4 µM | 35 ± 2.7 µM | 7 | – | – | – | –
